Legend:
phospho-ERK = assay: Western blot of signaling proteins in LK-treated cerebellar granule neurons: phospho-ERK; assay type: cell-based, rat; details: LK medium with compound, 3 h
Description: Cultures of cerebellar granule neurons were switched to HK medium, LK medium, or LK medium containing of HSB-13, HSB-22, or ASK-2a for 3 h. Total cell lysates were prepared and analyzed by Western blotting using antibodies against phospho-Akt (Ser473), phospho-MEK, phospho-ERK, and phospho-GSK3β.
(§1) The culture medium was removed and the cells were washed twice with ice-cold phosphate-buffered saline (PBS) and lysed in lysis buffer [1% Triton, 20 mM Tris-HCl (pH 7.5), 150 mM NaCl, 1 mM Na2EDTA, 1 mM EGTA, 2.5 mM sodium pyrophosphate, 1 mM beta-glycerophosphate, 1 mM Na3VO4, 1 μg/mL leupeptin and 1 protease inhibitor mixture]. Protein concentrations were measured and normalized using Bradford protein assay reagent (Bio-Rad, Hercules, Calif., USA). Following normalization, 40 μg of protein was subjected to Western blotting. Immunoreactivity was examined by enhanced chemiluminescence (Amersham Bioscience, Piscataway, N.J., USA).
Activation of MEK, ERK and Akt requires their phosphorylation, which can be detected using phospho-specific antibodies. As previously reported by the inventors and others (Chin et al., 2004; Johnson et al., 2005; Majdzadeh et al., 2008), MEK and ERK phosphorylation decreases following LK treatment of cerebellar granule neurons. This decrease is not prevented by HSB-13, HSB-22, or ASK-2a (FIG. 4). […] This is also not affected by treatment with ASK-2a or HSB-22 (FIG. 4).

c-jun = assay: Western blot of c-jun expression in LK-treated cerebellar granule neurons; assay type: cell-based, rat; details: 25 μM, 3 h
Description: (§2) Cerebellar neuron cultures were treated for 3 h with HK, LK, or LK medium containing 25 μM HSB-13, 25 μM ASK-2a, or 25 μM HSB-22. Whole cell lysates were then prepared and subjected to Western blot analysis using antibodies against c-jun and ATF-3.
as §1
(§3) C-jun expression is induced in a variety of tissue culture and in vivo paradigms of neuronal apoptosis (Schenkel et al., 2004). […] Treatment with HSB-13 inhibited c-jun expression even lower that that seen in HK-treated cultures. […] The suppression of ATF-3 expression using siRNA inhibits LK-mediated death of cerebellar granule neurons has been previously been described by the present inventors (Chen et al., 2008a). […] As observed with c-jun, the suppression was most robust with HSB-13. As a result these compositions can inhibit the activity of c-jun and ATF-3, which in turn play a role in treating cancer and oncoproteins like c-jun.

ATF-3 = assay: Western blot of ATF-3 expression in LK-treated cerebellar granule neurons; assay type: cell-based, rat; details: 25 μM, 3 h
Description: as §2, §1, §3

p38α = p38α (Homo sapiens, UniProt Q16539); assay: In vitro kinase activity; assay type: biochemical; details: percentage of control assays without compound, mean of duplicate
Chain of p38α (Q16539 whole entry): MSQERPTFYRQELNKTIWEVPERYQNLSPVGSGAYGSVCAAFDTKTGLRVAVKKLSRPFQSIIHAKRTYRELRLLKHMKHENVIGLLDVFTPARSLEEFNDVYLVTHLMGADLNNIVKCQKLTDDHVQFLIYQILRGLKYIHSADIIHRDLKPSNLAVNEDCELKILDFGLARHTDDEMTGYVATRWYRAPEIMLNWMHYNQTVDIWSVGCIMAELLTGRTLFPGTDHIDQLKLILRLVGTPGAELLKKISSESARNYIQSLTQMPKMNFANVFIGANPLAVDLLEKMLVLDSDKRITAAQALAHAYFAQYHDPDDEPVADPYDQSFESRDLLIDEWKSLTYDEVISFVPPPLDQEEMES
Description: (§4) To better understand the mechanism of action of the compounds of the present invention, but in no way a limitation; the effects of HSB-13 and ASK-2a on 20 different kinases were examined in vitro. At 500 nM concentration, ASK-2a inhibited the kinase activities of GSK3α, GSK3β, p38α, p38β, JNK3, MLK3, and B-Raf substantially. […] As described above, ASK-2a protects cerebellar granule neurons against LK-induced death but is ineffective against HCA-induced toxicity of HT-22 cells. In contrast, HSB-13 is protective in both paradigms. […] Previous studies have established that CDK inhibitors can protect neurons against a number of different apoptotic stimuli.
(§5) The activity of each kinase was measured in vitro in the presence either 100 nM or 500 nM ASK-2a. Kinase activity is expressed as a percentage of that in control assays (without ASK-2a). The values are mean of assays performed in duplicate. Substantial inhibition of kinase activity (>20%) is in bold type.
(§6) Table 3: Effect of HSB-13 at 500 nM on 20 different kinases measured in vitro. Kinase activity is expressed as a percentage of that in control assays (without HSB-13). The values are mean of assays performed in duplicate. Substantial inhibition of kinase activity (>20%) is in bold type.

GSK3β = GSK3β (Homo sapiens, UniProt P49841); assay: In vitro kinase activity; assay type: biochemical; details: percentage of control assays without compound, mean of duplicate
Description: as §4, §5, §6

MLK3 = MLK3 (Homo sapiens, UniProt Q16584); assay: In vitro kinase activity; assay type: biochemical; details: 100 nM, percentage of control assays without compound, mean of duplicate
Description: as §4, §5, §6

JNK3 = JNK3 (Homo sapiens, UniProt P53779); assay: In vitro kinase activity; assay type: biochemical; details: percentage of control assays without compound, mean of duplicate
Chain of JNK3 (P53779 whole entry, species assumed): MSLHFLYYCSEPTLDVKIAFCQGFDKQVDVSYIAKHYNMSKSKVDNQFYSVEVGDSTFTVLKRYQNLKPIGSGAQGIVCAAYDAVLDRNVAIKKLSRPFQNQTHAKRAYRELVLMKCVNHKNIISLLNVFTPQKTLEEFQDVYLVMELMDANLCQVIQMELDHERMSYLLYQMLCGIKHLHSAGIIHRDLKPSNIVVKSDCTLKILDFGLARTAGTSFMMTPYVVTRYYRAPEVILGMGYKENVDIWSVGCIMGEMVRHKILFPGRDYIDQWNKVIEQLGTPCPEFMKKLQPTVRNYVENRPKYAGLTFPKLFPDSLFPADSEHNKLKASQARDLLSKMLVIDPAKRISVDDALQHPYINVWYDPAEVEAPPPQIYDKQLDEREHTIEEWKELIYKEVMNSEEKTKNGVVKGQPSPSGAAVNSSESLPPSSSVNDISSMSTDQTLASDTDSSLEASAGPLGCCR
Description: as §4, §5, §6

CDK4/Cyclin D1 = CDK4/Cyclin D1 (Homo sapiens, UniProt P11802); assay: In vitro kinase activity; assay type: biochemical; details: percentage of control assays without compound, mean of duplicate
Chain of CDK4/Cyclin D1 (P11802 whole entry, species assumed): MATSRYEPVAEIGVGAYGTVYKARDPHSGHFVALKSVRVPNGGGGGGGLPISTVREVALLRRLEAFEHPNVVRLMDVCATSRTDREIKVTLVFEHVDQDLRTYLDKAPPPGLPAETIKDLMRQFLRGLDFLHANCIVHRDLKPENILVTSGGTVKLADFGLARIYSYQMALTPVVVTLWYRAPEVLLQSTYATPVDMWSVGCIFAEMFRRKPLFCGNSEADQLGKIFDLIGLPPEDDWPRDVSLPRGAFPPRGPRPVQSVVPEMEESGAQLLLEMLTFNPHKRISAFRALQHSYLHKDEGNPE
Chain of CDK4/Cyclin D1 (P24385 whole entry partner, species assumed): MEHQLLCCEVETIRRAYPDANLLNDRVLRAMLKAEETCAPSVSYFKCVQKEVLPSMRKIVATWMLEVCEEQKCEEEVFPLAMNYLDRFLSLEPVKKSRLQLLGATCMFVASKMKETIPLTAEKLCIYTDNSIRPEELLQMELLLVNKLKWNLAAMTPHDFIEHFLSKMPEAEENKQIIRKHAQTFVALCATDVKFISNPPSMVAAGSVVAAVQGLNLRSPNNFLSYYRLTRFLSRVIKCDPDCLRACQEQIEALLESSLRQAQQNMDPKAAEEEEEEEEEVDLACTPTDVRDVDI
Description: as §4, §5, §6

LRRK2 = LRRK2 (Homo sapiens, UniProt Q5S007); assay: In vitro kinase activity; assay type: biochemical; details: percentage of control assays without compound, mean of duplicate
Chain of LRRK2 (Q5S007 whole entry, species assumed): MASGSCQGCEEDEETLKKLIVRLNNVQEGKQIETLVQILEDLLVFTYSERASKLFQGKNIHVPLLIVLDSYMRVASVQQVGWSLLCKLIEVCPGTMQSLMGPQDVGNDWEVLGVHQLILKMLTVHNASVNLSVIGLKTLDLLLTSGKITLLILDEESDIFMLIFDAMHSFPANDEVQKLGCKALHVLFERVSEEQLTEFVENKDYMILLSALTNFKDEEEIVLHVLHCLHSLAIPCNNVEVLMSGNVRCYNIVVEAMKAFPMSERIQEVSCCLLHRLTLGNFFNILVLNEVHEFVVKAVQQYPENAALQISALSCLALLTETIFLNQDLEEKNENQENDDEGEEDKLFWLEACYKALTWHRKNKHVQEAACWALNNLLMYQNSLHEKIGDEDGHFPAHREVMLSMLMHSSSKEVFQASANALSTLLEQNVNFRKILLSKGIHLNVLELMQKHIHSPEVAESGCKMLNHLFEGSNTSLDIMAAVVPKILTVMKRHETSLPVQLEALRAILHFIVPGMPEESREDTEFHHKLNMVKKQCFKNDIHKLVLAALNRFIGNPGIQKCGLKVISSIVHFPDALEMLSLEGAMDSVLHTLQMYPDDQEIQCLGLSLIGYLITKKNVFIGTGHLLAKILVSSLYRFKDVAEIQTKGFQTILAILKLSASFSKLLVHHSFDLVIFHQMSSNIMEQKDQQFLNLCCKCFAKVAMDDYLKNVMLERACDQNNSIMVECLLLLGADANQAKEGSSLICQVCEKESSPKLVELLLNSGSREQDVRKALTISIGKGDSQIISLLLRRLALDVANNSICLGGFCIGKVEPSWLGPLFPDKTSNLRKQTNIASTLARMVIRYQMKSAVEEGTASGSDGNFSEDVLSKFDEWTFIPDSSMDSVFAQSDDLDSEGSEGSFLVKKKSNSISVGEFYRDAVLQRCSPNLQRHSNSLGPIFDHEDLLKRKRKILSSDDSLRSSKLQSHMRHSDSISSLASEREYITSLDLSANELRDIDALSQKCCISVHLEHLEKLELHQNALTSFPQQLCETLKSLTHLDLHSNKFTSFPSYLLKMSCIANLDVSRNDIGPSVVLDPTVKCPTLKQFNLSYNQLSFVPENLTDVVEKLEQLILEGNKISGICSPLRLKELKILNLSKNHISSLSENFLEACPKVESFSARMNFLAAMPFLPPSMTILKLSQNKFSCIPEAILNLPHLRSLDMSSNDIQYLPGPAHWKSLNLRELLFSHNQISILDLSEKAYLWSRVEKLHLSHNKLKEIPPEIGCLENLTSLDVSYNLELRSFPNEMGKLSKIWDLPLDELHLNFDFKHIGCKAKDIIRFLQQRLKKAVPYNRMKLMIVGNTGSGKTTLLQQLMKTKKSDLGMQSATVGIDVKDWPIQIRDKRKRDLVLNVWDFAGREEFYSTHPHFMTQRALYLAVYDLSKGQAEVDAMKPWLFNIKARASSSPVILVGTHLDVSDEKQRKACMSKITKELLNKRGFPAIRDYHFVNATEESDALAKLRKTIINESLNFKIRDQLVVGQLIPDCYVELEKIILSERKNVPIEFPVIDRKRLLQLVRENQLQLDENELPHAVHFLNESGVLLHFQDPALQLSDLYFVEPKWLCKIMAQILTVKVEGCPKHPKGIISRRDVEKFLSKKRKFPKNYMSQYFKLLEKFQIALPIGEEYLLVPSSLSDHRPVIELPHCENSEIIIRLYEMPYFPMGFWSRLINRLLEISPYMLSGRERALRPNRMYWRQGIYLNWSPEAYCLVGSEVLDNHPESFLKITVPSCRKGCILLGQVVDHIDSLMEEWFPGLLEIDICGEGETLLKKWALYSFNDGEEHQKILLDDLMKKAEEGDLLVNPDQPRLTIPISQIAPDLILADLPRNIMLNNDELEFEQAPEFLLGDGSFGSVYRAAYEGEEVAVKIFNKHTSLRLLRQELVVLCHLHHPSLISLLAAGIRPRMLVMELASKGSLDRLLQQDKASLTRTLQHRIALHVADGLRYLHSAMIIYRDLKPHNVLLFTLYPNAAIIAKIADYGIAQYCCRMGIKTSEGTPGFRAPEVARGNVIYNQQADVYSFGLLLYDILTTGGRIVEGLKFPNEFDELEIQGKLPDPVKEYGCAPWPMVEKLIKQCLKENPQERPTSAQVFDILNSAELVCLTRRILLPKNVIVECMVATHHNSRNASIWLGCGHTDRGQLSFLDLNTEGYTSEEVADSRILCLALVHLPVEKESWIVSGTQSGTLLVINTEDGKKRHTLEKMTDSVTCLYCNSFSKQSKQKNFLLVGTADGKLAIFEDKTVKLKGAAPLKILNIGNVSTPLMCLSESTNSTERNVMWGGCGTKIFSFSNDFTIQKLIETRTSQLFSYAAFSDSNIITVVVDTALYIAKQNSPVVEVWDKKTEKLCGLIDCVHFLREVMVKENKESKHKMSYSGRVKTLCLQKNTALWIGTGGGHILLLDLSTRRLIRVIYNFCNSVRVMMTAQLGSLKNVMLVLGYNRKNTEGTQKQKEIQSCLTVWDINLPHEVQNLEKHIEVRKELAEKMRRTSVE
Description: as §4, §5, §6

CDK1/Cyclin B1 = CDK1/Cyclin B1 (Homo sapiens, UniProt P06493); assay: In vitro kinase activity; assay type: biochemical; details: percentage of control assays without compound, mean of duplicate
Chain of CDK1/Cyclin B1 (P06493 whole entry, species assumed): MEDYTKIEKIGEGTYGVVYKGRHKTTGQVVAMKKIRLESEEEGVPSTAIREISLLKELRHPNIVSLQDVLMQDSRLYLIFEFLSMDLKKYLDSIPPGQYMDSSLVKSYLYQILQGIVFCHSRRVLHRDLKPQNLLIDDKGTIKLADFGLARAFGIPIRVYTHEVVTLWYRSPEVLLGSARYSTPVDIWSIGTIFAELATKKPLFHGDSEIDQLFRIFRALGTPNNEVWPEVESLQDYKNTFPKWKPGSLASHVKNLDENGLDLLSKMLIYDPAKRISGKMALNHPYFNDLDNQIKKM
Chain of CDK1/Cyclin B1 (P14635 whole entry partner, species assumed): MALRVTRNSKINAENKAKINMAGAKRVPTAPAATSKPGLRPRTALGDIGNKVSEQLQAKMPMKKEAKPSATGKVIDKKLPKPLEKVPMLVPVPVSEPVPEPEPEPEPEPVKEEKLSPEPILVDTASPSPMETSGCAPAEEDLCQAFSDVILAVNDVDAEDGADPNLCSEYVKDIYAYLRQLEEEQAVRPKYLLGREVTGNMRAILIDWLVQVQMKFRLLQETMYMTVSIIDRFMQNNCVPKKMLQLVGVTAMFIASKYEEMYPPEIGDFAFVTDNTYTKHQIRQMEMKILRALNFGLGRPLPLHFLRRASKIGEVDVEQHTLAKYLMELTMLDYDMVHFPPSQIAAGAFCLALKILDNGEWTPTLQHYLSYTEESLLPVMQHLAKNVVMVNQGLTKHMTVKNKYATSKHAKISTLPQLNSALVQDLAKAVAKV
Description: as §4, §5, §6

[1] = 100 nM, listed as ASK2a, 0.1 µM

| Compound | LK-induced decrease of ERK phosphorylation (phospho-ERK) | induction of c-jun expression by LK (c-jun) | LK-mediated increase in ATF-3 (ATF-3) | % ACTIVITY (CDK4/Cyclin D1; 100 nM) [%] | % ACTIVITY (CDK4/Cyclin D1; 500 nM) [%] | % ACTIVITY (LRRK2; 100 nM) [%] | % ACTIVITY (LRRK2; 500 nM) [%] | % ACTIVITY (CDK1/Cyclin B1; 100 nM) [%] | other results |
| --- | --- | --- | --- | --- | --- | --- | --- | --- | --- |
| O=C1Nc2ccccc2OC1=Cc1cc(Br)c(O)c(Br)c1 [ASK-2a] | not prevented | inhibited | inhibited | 93 | 97 | 96 | 94 | 91 | % ACTIVITY (p38α; 100 nM, 0.1 µM): 76%; % ACTIVITY (p38α; [1]): inhibited efficiently; % ACTIVITY (GSK3β; 100 nM, 0.1 µM): 55%; % ACTIVITY (GSK3β; [1]): inhibited efficiently; % ACTIVITY (MLK3; 0.1 µM): 88%; % ACTIVITY (MLK3; listed as ASK2a, 0.1 µM): inhibited less efficiently; % ACTIVITY (JNK3; 100 nM, 0.1 µM): 94%; % ACTIVITY (JNK3; [1]): inhibited efficiently; % ACTIVITY (CDK1/Cyclin B1; 500 nM): 98% |
| Nc1ccc2c(c1)NC(=O)/C(=C/c1cc(Br)c(O)c(Br)c1)O2 [HSB-13, (Z)-6-amino-2-(3,′5′-dibromo-4′-hydrozybenzylidene)-2H-benzo[b][1,4]oxazin-3(4H)-one] | not prevented | inhibited | inhibited | 103 | 88 | 97 | 88 | 90 | % ACTIVITY (p38α; 100 nM): 88%; % ACTIVITY (p38α; 500 nM): 43%; % ACTIVITY (GSK3β; 500 nM): 19%; % ACTIVITY (MLK3): 94%; % ACTIVITY (JNK3; 100 nM): 92%; % ACTIVITY (JNK3; 500 nM): 92% |
| O=C1Nc2cc(Cl)ccc2O/C1=C\c1cc(Br)c(O)c(Br)c1 [HSB-22] | not prevented | inhibited | inhibited |  |  |  |  |  |  |
